For orientation: EC50 means the concentration giving half of the maximal effect.

For test [1], the target named is T1, Human GPR120 short form (Homo sapiens, UniProt Q5NUL3).
T1 construct: expressed in transfected cells
T1 sequence (Q5NUL3 1-361): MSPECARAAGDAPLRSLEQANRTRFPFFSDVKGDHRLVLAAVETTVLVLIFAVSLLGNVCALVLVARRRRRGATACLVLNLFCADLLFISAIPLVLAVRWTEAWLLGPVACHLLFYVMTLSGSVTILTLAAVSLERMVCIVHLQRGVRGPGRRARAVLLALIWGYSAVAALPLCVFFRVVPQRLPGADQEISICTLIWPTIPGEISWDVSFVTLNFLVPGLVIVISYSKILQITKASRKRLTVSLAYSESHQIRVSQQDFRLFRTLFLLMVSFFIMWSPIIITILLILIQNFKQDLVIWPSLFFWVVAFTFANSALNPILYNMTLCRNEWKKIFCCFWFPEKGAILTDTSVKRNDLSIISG
Description: Human GPR120 in Calcium Flux Assay, Procedure Calcium A (2500 cells/well). In kind it is cell-based. The method in brief: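 HEK293 cells stably expressing GPR120 short isoform, 2500 cells/well, serum-starved 1 h, loaded with Fluo-4 NW plus probenecid (30 min 37 °C, 15 min RT). Compounds prepared at 0.012–100 μM, 0.2% DMSO final. FLIPR calcium signal over 300 s as Fmax−Fmin; EC50 from variable-slope fit (Hill <2).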

For test [2], the system named is C57bl/6J Mice. Description: GPR120 C57bl6 Mouse IPGTT. In kind it is in vivo. The method, then: (§1) Male, C57bl/6J Mice were ordered in at 8 weeks of age from Jackson Labs. Individual mice weighed anywhere in the range of 25-30 grams on study day. The mice were fasted, with removal of food occurring at 7 am on the morning of the study. Animals were moved into the room at 10:00 am, to give them time to acclimate. Glucose (insulin syringes) was drawn up either the night before or the morning of the study. Glucose was dosed (IP) at 1.5 g/kg at 7.5 ml/kg (20% glucose straight TEKNOVA, 250 ml sterile bottle w/catalogue number G0525). Test compounds were kept spinning and were only drawn into the syringes prior to study commencement. Animals were bled via tail snip to determine basal glucose levels prior to dosing of treatments. An Ascensia BREEZE Blood Glucose Monitoring System by Bayer (using unique 10-test disks) was used for determining glucose levels. The bleeds started at approximately 12:45 pm and dosing started, at 1-minute intervals, immediately after. All groups were dosed 30 minutes prior to glucose administration at a dose volume of 10 ml/kg (the dose volume was calculated separately for each individual animal). Thirty minutes after the first dose animals were bled again for a second baseline, or T=0, and immediately dosed with glucose via an i.p. injection. The exact dose volume for glucose was also calculated separately for each individual animal. Glucose measurements were taken at −30 min prior to compound dose, at t=0 (immediately prior to glucose dose), and at 15, 30, 45, 60, 90 min post glucose dose.
(§2) Glucose values were entered into an Excel sheet and graphed in GraphPad Prism. The following were calculated from Prism: Change from −30 to 0 BSLN Glucose, Raw Glucose AUC −30 to 90 min, Delta Glucose AUC −30 to 90 min, Raw Glucose AUC 0 to 90 min, Delta Glucose AUC 0 to 90 min.

The subject of test [3] is C57bl/6J Mice. Description: C57bl6 mouse OGTT. The test is classed as in vivo. The protocol: as §1, §2
The assay design is the same as that described above for the C57bl6 mouse IPGTT. The difference is that glucose was dosed PO at 3 g/kg, 7.5 ml/kg of 40% glucose.

Regarding `Cc1cc2cc(F)cc(COc3ccc(CCC(=O)O)c(C)c3C)c2o1` [Compound 2, 3-{4-[(5-Fluoro-2-methyl-1-benzofuran-7-yl)methoxy]-2,3-dimethylphenyl}propanoic acid], the EC50 in test [1] stood at 51 nM. Moreover, the “Dose Responses C57 IPGTT” value was −3% in test [2] (1 mg/kg), −20% in test [2] (3 mg/kg), −27% in test [2] (10 mg/kg) and −53% in test [2] (30 mg/kg). Also, the “Dose Responses C57 OGTT” value in test [3] (3 mg/kg) is reported as −29%; in test [3] (10 mg/kg) it was −31%; in test [3] (30 mg/kg), −51%.

As for `CCc1cc2cc(F)cc(COc3ccc(CCC(=O)O)c(C)c3C)c2o1` [Compound 3, 3-{4-[(2-Ethyl-5-fluoro-1-benzofuran-7-yl)methoxy]-2,3-dimethylphenyl}propanoic acid], the EC50 in test [1] turned out to be 58 nM. Besides, the “Dose Responses C57 OGTT” value in test [3] (3 mg/kg) is −15%; in test [3] (10 mg/kg), −24%; in test [3] (30 mg/kg), −35%. In test [3] (30 mg/kg, glucose PO 3 g/kg), the “C57 OGTT result” value was −35.

On to `CCc1cc2cc(Cl)cc(COc3ccc(CCC(=O)O)c(C)c3C)c2o1` [Compound 11, 3-{4-[(5-Chloro-2-ethyl-1-benzofuran-7-yl)methoxy]-2,3-dimethylphenyl}propanoic acid], for which the EC50 in test [1] was found to be 23 nM. Moreover, the entries for the “Dose Responses C57 OGTT” value in test [3] (3 mg/kg), in test [3] (10 mg/kg) and in test [3] (30 mg/kg) were −30%, −38% and −43%, respectively.

On to `CCc1cc2cc(OC(F)(F)F)cc(COc3ccc(CCC(=O)O)c(C)c3C)c2o1` [Compound 12, 3-(4-{[2-Ethyl-5-(trifluoromethoxy)-1-benzofuran-7-yl]methoxy}-2,3-dimethylphenyl)propanoic acid], for which, in test [1], the half-maximal effective concentration (EC50) is 39 nM. Also, the “Dose Responses C57 OGTT” value in test [3] (3 mg/kg) is 6%; in test [3] (10 mg/kg), −26%; in test [3] (30 mg/kg), −30%.

Take `Cc1cc2cc(OC(F)(F)F)cc(COc3ccc(CCC(=O)O)c(C)c3C)c2o1` [Compound 36, 3-(2,3-Dimethyl-4-{[2-methyl-5-(trifluoromethoxy)-1-benzofuran-7-yl]methoxy}phenyl)propanoic acid]: the concentration giving a half-maximal response (EC50) in test [1] amounted to 10 nM. Further, the “Dose Responses C57 IPGTT” value in test [2] (3 mg/kg) was −7%; in test [2] (10 mg/kg), −36%; in test [2] (30 mg/kg) it was −46%.

Regarding `CCc1cc2cc(Cl)c(C)c(COc3ccc(CCC(=O)O)c(C)c3C)c2o1` [Compound 40, 3-{4-[(5-Chloro-2-ethyl-6-methyl-1-benzofuran-7-yl)methoxy]-2,3-dimethylphenyl}propanoic acid], the concentration giving a half-maximal response (EC50) in test [1] amounted to 34 nM. Besides, the “Dose Responses C57 IPGTT” value in test [2] (1 mg/kg) is on record as −28%; in test [2] (3 mg/kg) it was 13%; in test [2] (10 mg/kg) it was −34%.

The values above are taken from patent US9562053B2, “Benzo-fused heterocyclic derivatives useful as agonists of GPR120” (Janssen Pharmaceutica NV, priority 2013, dated 2017).
